{"source": "patent US10829501B2", "about": "(BRISTOL-MYERS SQUIBB COMPANY, priority 2016, dated 2020)", "molecular_target": "ROCK2 (Homo sapiens, UniProt O75116)", "sequence (O75116 whole entry, species assumed)": "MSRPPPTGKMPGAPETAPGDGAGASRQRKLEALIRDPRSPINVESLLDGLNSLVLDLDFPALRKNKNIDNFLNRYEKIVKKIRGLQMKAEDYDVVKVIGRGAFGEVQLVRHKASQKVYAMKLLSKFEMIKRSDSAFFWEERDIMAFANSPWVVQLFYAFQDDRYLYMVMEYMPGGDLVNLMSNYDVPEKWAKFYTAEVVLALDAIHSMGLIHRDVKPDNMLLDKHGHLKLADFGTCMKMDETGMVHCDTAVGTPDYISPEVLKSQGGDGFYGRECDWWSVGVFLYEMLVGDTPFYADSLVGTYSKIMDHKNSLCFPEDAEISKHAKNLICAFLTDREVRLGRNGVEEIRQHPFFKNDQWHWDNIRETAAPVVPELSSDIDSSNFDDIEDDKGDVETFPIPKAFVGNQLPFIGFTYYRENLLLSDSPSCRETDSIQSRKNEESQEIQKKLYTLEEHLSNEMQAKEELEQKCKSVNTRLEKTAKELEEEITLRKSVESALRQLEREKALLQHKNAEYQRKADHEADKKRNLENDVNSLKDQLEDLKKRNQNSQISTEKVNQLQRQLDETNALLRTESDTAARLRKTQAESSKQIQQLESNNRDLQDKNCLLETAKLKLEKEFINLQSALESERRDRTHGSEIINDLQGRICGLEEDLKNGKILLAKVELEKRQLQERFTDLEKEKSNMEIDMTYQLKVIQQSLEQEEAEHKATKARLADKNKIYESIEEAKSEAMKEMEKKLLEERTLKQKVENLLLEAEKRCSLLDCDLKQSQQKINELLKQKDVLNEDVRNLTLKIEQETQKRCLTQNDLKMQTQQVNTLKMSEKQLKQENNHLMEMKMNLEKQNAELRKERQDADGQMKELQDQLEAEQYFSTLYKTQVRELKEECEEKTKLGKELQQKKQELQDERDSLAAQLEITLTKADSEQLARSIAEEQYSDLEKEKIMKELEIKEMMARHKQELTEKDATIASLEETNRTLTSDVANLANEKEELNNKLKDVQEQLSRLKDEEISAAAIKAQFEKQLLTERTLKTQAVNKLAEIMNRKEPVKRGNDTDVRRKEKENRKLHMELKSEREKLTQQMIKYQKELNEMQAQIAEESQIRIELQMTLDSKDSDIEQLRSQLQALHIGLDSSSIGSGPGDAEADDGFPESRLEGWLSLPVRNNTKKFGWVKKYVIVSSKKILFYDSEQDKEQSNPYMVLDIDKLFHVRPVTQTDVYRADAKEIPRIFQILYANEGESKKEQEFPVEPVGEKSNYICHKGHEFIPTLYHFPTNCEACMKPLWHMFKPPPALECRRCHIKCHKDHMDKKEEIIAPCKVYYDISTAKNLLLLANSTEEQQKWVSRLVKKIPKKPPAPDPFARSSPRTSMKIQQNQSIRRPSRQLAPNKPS", "experiment": "ROCK2 kinase inhibition assay (LABCHIP 3000 Reader, FITC peptide substrate);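 also: rho kinase reaction read by separating phosphorylated from unphosphorylated peptide on chip, with inhibition of kinase activity computed per concentration across a dose-response series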"}
{"smiles": "NC(=O)c1cccnc1O[C@H]1CC2(C[C@H](NC(=O)c3cnn4c(C5CC5)c(OCC5CCO5)ccc34)C2)C1", "note": "(stereo partly drawn) [Example 344, N-((aR)-6-((3-carbamoylpyridin-2-yl)oxy)spiro[3.3]heptan-2-yl)-7-cyclopropyl-6-(oxetan-2-ylmethoxy)pyrazolo[1,5-a]pyridine-3-carboxamide]", "values": [{"measurement": "IC50", "value": "5 to 50", "unit": "nM"}]}
{"smiles": "NC(=O)c1cccnc1O[C@H]1CC2(C[C@H](NC(=O)c3cnc4cnccn34)C2)C1", "note": "(stereo partly drawn) [Example 345, N-((aR)-6-((3-carbamoylpyridin-2-yl)oxy)spiro[3.3]heptan-2-yl)imidazo[1,2-a]pyrazine-3-carboxamide]", "values": [{"measurement": "IC50", "value": "250 to 2500", "unit": "nM"}]}
{"smiles": "NC(=O)c1cccnc1O[C@H]1CC2(C[C@H](NC(=O)c3cnc4c(C(F)(F)F)cccn34)C2)C1", "note": "(stereo partly drawn) [Example 346, N-((aR)-6-((3-carbamoylpyridin-2-yl)oxy)spiro[3.3]heptan-2-yl)-8-(trifluoromethyl)imidazo[1,2-a]pyridine-3-carboxamide]", "values": [{"measurement": "IC50", "value": "50 to 250", "unit": "nM"}]}
{"smiles": "COC(=O)N1CC(Oc2ccc3c(C(=O)N[C@H]4CC5(C4)C[C@H](Oc4ncccc4C(N)=O)C5)cnn3c2)C1", "note": "(stereo partly drawn) [Example 347, methyl 3-((3-(((aR)-6-((3-carbamoylpyridin-2-yl)oxy)spiro[3.3]heptan-2-yl)carbamoyl)pyrazolo[1,5-a]pyridin-6-yl)oxy)azetidine-1-carboxylate]", "values": [{"measurement": "IC50", "value": "5 to 50", "unit": "nM"}]}
{"smiles": "COc1ccn2c(C(=O)N[C@H]3CC4(C3)C[C@H](Oc3ncccc3C(N)=O)C4)cnc2c1", "note": "(stereo partly drawn) [Example 348, N-((aR)-6-((3-carbamoylpyridin-2-yl)oxy)spiro[3.3]heptan-2-yl)-7-methoxyimidazo[1,2-a]pyridine-3-carboxamide]", "values": [{"measurement": "IC50", "value": "50 to 250", "unit": "nM"}]}
{"smiles": "NC(=O)c1cccnc1O[C@H]1CC2(C[C@H](NC(=O)c3cnn4cc(N5CC6(COC6)C5)ccc34)C2)C1", "note": "(stereo partly drawn) [Example 349, N-((aR)-6-((3-carbamoylpyridin-2-yl)oxy)spiro[3.3]heptan-2-yl)-6-(2-oxa-6-azaspiro[3.3]heptan-6-yl)pyrazolo[1,5-a]pyridine-3-carboxamide]", "values": [{"measurement": "IC50", "value": "5 to 50", "unit": "nM"}]}
{"smiles": "NC(=O)c1cccnc1O[C@H]1CC2(C[C@H](NC(=O)c3cnn4cc(OC5CC(F)(F)C5)ccc34)C2)C1", "note": "(stereo partly drawn) [Example 350, N-((aR)-6-((3-carbamoylpyridin-2-yl)oxy)spiro[3.3]heptan-2-yl)-6-(3,3-difluorocyclobutoxy)pyrazolo[1,5-a]pyridine-3-carboxamide]", "values": [{"measurement": "IC50", "value": "5 to 50", "unit": "nM"}]}
{"smiles": "NC(=O)c1cccnc1O[C@H]1CC2(C[C@H](NC(=O)c3cnn4c(C5CC5)c(OC5CCS(=O)(=O)CC5)ccc34)C2)C1", "note": "(stereo partly drawn) [Example 351, N-((aR)-6-((3-carbamoylpyridin-2-yl)oxy)spiro[3.3]heptan-2-yl)-7-cyclopropyl-6-((1,1-dioxidotetrahydro-2H-thiopyran-4-yl)oxy)pyrazolo[1,5-a]pyridine-3-carboxamide]", "values": [{"measurement": "IC50", "value": "< 5", "unit": "nM"}]}
{"smiles": "CS(=O)(=O)CCCOc1ccc2c(C(=O)N[C@H]3CC4(C3)C[C@H](Oc3ncccc3C(N)=O)C4)cnn2c1C1CC1", "note": "(stereo partly drawn) [Example 352, N-((aR)-6-((3-carbamoylpyridin-2-yl)oxy)spiro[3.3]heptan-2-yl)-7-cyclopropyl-6-(3-(methylsulfonyl)propoxy)pyrazolo[1,5-a]pyridine-3-carboxamide]", "values": [{"measurement": "IC50", "value": "5 to 50", "unit": "nM"}]}
{"smiles": "N#Cc1ccn2c(C(=O)N[C@H]3CC4(C3)C[C@H](Oc3ncccc3C(N)=O)C4)cnc2c1", "note": "(stereo partly drawn) [Example 353, N-((aR)-6-((3-carbamoylpyridin-2-yl)oxy)spiro[3.3]heptan-2-yl)-7-cyanoimidazo[1,2-a]pyridine-3-carboxamide]", "values": [{"measurement": "IC50", "value": "50 to 250", "unit": "nM"}]}
{"smiles": "N#Cc1cccn2c(C(=O)N[C@H]3CC4(C3)C[C@H](Oc3ncccc3C(N)=O)C4)cnc12", "note": "(stereo partly drawn) [Example 354, N-((aR)-6-((3-carbamoylpyridin-2-yl)oxy)spiro[3.3]heptan-2-yl)-8-cyanoimidazo[1,2-a]pyridine-3-carboxamide]", "values": [{"measurement": "IC50", "value": "50 to 250", "unit": "nM"}]}
{"smiles": "NC(=O)c1cccnc1O[C@H]1CC2(C[C@H](NC(=O)c3cnn4cc(N5CC(CO)(CO)C5)ccc34)C2)C1", "note": "(some centres unmarked) [Example 355]", "values": [{"measurement": "IC50", "value": "50 to 250", "unit": "nM"}]}
{"smiles": "NC(=O)c1cccnc1O[C@H]1CC2(C[C@H](NC(=O)c3cnc4cc(N5CCOCC5)ccn34)C2)C1", "note": "(stereo partly drawn) [Example 356, N-((aR)-6-((3-carbamoylpyridin-2-yl)oxy)spiro[3.3]heptan-2-yl)-7-morpholinoimidazo[1,2-a]pyridine-3-carboxamide]", "values": [{"measurement": "IC50", "value": "5 to 50", "unit": "nM"}]}
{"smiles": "Cn1cc(-c2ccc3c(C(=O)N[C@H]4CC5(C4)C[C@H](Oc4ncccc4C(N)=O)C5)cnn3c2C2CC2)cn1", "note": "(stereo partly drawn) [Example 357, N-((aR)-6-((3-carbamoylpyridin-2-yl)oxy)spiro[3.3]heptan-2-yl)-7-cyclopropyl-6-(1-methyl-1H-pyrazol-4-yl)pyrazolo[1,5-a]pyridine-3-carboxamide]", "values": [{"measurement": "IC50", "value": "< 5", "unit": "nM"}]}
{"smiles": "NC(=O)c1cccnc1O[C@H]1CC2(C[C@H](NC(=O)c3cnc4cc(NCC(F)F)ccn34)C2)C1", "note": "(stereo partly drawn) [Example 358, N-((aR)-6-((3-carbamoylpyridin-2-yl)oxy)spiro[3.3]heptan-2-yl)-7-((2,2-difluoroethyl)amino)imidazo[1,2-a]pyridine-3-carboxamide]", "values": [{"measurement": "IC50", "value": "5 to 50", "unit": "nM"}]}
{"smiles": "[H][C@]1(Oc2ncccc2C(N)=O)C[C@@]2(C[C@H](NC(=O)c3cnc4cc(N5CC(N)C5)ccn34)C2)C1", "note": "(stereo partly drawn) [Example 359, 7-(3-aminoazetidin-1-yl)-N-((aR)-6-((3-carbamoylpyridin-2-yl)oxy)spiro[3.3]heptan-2-yl)imidazo[1,2-a]pyridine-3-carboxamide]", "values": [{"measurement": "IC50", "value": "50 to 250", "unit": "nM"}]}
{"smiles": "NC(=O)c1cccnc1O[C@H]1CC2(C[C@H](NC(=O)c3cnc4cc(OC5CC(F)(F)C5)ccn34)C2)C1", "note": "(stereo partly drawn) [Example 360, N-((aR)-6-((3-carbamoylpyridin-2-yl)oxy)spiro[3.3]heptan-2-yl)-7-(3,3-difluorocyclobutoxy)imidazo[1,2-a]pyridine-3-carboxamide]", "values": [{"measurement": "IC50", "value": "5 to 50", "unit": "nM"}]}
{"smiles": "[H][C@]1(Oc2ncccc2C(N)=O)C[C@@]2(C[C@H](NC(=O)c3cnc4cc(Cl)ccn34)C2)C1", "note": "(stereo partly drawn) [Example 361, N-((aR)-6-((3-carbamoylpyridin-2-yl)oxy)spiro[3.3]heptan-2-yl)-7-chloroimidazo[1,2-a]pyridine-3-carboxamide]", "values": [{"measurement": "IC50", "value": "50 to 250", "unit": "nM"}]}
{"smiles": "NC(=O)c1cccnc1O[C@H]1CC2(C[C@H](NC(=O)c3cnc4cc(N5CCS(=O)(=O)CC5)ccn34)C2)C1", "note": "(stereo partly drawn) [Example 362, N-((aR)-6-((3-carbamoylpyridin-2-yl)oxy)spiro[3.3]heptan-2-yl)-7-(1,1-dioxidothiomorpholino)imidazo[1,2-a]pyridine-3-carboxamide]", "values": [{"measurement": "IC50", "value": "50 to 250", "unit": "nM"}]}
{"smiles": "[2H]C([2H])([2H])n1cc(-c2ccc3c(C(=O)N[C@H]4CC5(C4)C[C@H](Oc4ncccc4C(N)=O)C5)nnn3c2)cn1", "note": "(stereo partly drawn) [Example 363, N-((aR)-6-((3-carbamoylpyridin-2-yl)oxy)spiro[3.3]heptan-2-yl)-6-(1-(^2H3)methyl-1H-pyrazol-4-yl)-[1,2,3]triazolo[1,5-a]pyridine-3-carboxamide]", "values": [{"measurement": "IC50", "value": "< 5", "unit": "nM"}]}
{"smiles": "NC(=O)c1cccnc1O[C@H]1CC2(C[C@H](NC(=O)c3nnn4cc(-c5cnn(C6CC6)c5)ccc34)C2)C1", "note": "(stereo partly drawn) [Example 364, N-((aR)-6-((3-carbamoylpyridin-2-yl)oxy)spiro[3.3]heptan-2-yl)-6-(1-cyclopropyl-1H-pyrazol-4-yl)-[1,2,3]triazolo[1,5-a]pyridine-3-carboxamide]", "values": [{"measurement": "IC50", "value": "< 5", "unit": "nM"}]}
{"smiles": "CC(C)(O)Cn1cc(-c2ccc3c(C(=O)N[C@H]4CC5(C4)C[C@H](Oc4ncccc4C(N)=O)C5)nnn3c2)cn1", "note": "(stereo partly drawn) [Example 365, N-((aR)-6-((3-carbamoylpyridin-2-yl)oxy)spiro[3.3]heptan-2-yl)-6-(1-(2-hydroxy-2-methylpropyl)-1H-pyrazol-4-yl)-[1,2,3]triazolo[1,5-a]pyridine-3-carboxamide]", "values": [{"measurement": "IC50", "value": "5 to 50", "unit": "nM"}]}
{"smiles": "CC(C)n1cc(-c2ccc3c(C(=O)N[C@H]4CC5(C4)C[C@H](Oc4ncccc4C(N)=O)C5)nnn3c2)c(C(F)(F)F)n1", "note": "(stereo partly drawn) [Example 366, N-((aR)-6-((3-carbamoylpyridin-2-yl)oxy)spiro[3.3]heptan-2-yl)-6-(1-isopropyl-3-(trifluoromethyl)-1H-pyrazol-4-yl)-[1,2,3]triazolo[1,5-a]pyridine-3-carboxamide]", "values": [{"measurement": "IC50", "value": "5 to 50", "unit": "nM"}]}
{"smiles": "Cn1cc(-c2ccc3c(C(=O)N[C@H]4CC5(C4)C[C@H](Oc4ncccc4C(N)=O)C5)nnn3c2)cn1", "note": "(stereo partly drawn) [Example 367, N-((aR)-6-((3-carbamoylpyridin-2-yl)oxy)spiro[3.3]heptan-2-yl)-6-(1-methyl-1H-pyrazol-4-yl)-[1,2,3]triazolo[1,5-a]pyridine-3-carboxamide]", "values": [{"measurement": "IC50", "value": "< 5", "unit": "nM"}]}
{"smiles": "[H][C@]1(Oc2ncccc2C(N)=O)C[C@@]2(C[C@H](NC(=O)c3nnn4cc(Br)ccc34)C2)C1", "note": "(stereo partly drawn) [Example 368, 6-bromo-N-((aR)-6-((3-carbamoylpyridin-2-yl)oxy)spiro[3.3]heptan-2-yl)-[1,2,3]triazolo[1,5-a]pyridine-3-carboxamide]", "values": [{"measurement": "IC50", "value": "5 to 50", "unit": "nM"}]}
{"smiles": "[H][C@]1(Oc2ncccc2C(N)=O)C[C@@]2(C[C@H](NC(=O)c3nnn4cc(N5CCOCC5)ccc34)C2)C1", "note": "(stereo partly drawn) [Example 369, N-((aR)-6-((3-carbamoylpyridin-2-yl)oxy)spiro[3.3]heptan-2-yl)-6-morpholino-[1,2,3]triazolo[1,5-a]pyridine-3-carboxamide]", "values": [{"measurement": "IC50", "value": "250 to 2500", "unit": "nM"}]}
{"smiles": "[H][C@]1(Oc2ncccc2C(N)=O)C[C@@]2(C[C@H](NC(=O)c3cnc4cc(-c5ccc(=O)n(C)c5)ccn34)C2)C1", "note": "(stereo partly drawn) [Example 370, N-((aR)-6-((3-carbamoylpyridin-2-yl)oxy)spiro[3.3]heptan-2-yl)-7-(1-methyl-6-oxo-1,6-dihydropyridin-3-yl)imidazo[1,2-a]pyridine-3-carboxamide]", "values": [{"measurement": "IC50", "value": "< 5", "unit": "nM"}]}
{"smiles": "[H][C@]1(Oc2ncccc2C(N)=O)C[C@@]2(C[C@H](NC(=O)c3cnn4cc(-c5ccc(=O)n(C)c5)ccc34)C2)C1", "note": "(stereo partly drawn) [Example 371, N-((aR)-6-((3-carbamoylpyridin-2-yl)oxy)spiro[3.3]heptan-2-yl)-6-(1-methyl-6-oxo-1,6-dihydropyridin-3-yl)pyrazolo[1,5-a]pyridine-3-carboxamide]", "values": [{"measurement": "IC50", "value": "5 to 50", "unit": "nM"}]}
{"smiles": "[H][C@]1(Oc2ncccc2C(N)=O)C[C@@]2(C[C@H](NC(=O)c3nn(C(F)F)c4cc(N5CCOCC5)ccc34)C2)C1", "note": "(stereo partly drawn) [Example 372, N-((aR)-6-((3-carbamoylpyridin-2-yl)oxy)spiro[3.3]heptan-2-yl)-1-(difluoromethyl)-6-morpholino-1H-indazole-3-carboxamide]", "values": [{"measurement": "IC50", "value": "< 5", "unit": "nM"}]}
